Source: patent US20080176934A1, “Use Of Diosmetin Compounds In The Treatment And Prevention Of Thrombotic Pathologies” (Les Laboratoires Servier, priority 2005, published 2008)
Like-named read-outs stand apart in the source and are kept apart here.

Tests used:
PAI-1 promoter = PAI-1 promoter activity (PGL3/PAI-1 luciferase reporter) in transfected HepG2 cells; assay type: cell-based, human; details: for Activity in cpm (PAI-1 promoter activity): 10 μM, 24 h, n=6; for inhibition at 10 µM: Homo sapiens, HepG2, 24 h, read-out: % inhibition/control (PAI-1 promoter activity)
Method: The study is carried out on a line of human hepatocytes HepG2 (ATCC, no. HB-8065). The cells are cultured in a medium of MEM (minimal essential medium) with glutamax-1 (Gibco™) containing 10% FCS (foetal calf serum), 1% non-essential amino acids and 1% sodium pyruvate and supplemented with penicillin and streptomycin.
A fragment of 2.5 kb, corresponding to the PAI-1 promoter, extending from the nucleotides at positions −2442 to +136, was amplified by PCR and sub-cloned (Lopez et al., 2000, Atherosclerosis, 152, 359-366). In a final reaction volume of 50 μl, 2.5 units of Platinum® TaqDNA Polymerase High Fidelity (Invitrogen) are placed in the presence of 300 ng of human genomic DNA (Clontech), 300 μM of dNTP (deoxynucleotide triphosphate) (Clontech), 300 nM of primers in a medium containing the buffer specific to the enzyme, supplemented by 1.5 mM of MgCl2 and different concentrations of PCRx Enhancer System (Invitrogen), which facilitates amplification of the especially difficult sequences (0 to 4×). The set of primers used (Chen et al. Differential mechanisms of PAI-1 gene activation by transforming growth factor beta and tumor necrosis factor alpha in endothelial cells, 2001, Thrmb Haemost, 86, 1563-72) is as follows:
Ligation of the pGL3-Basic plasmid vector and the insert corresponding to the PAI-1 promoter was carried out by means of T4 DNA Ligase (LigaFast™ Rapid DNA Ligation System from Promega). Conventionally, during ligation, there is used an excess of insert which is equivalent to three times the amount of vector. Furthermore, because this insert is half as long as the vector (2.5 kb as opposed to 4.8 kb), maintaining stoichiometric equilibrium requires twice the mass of […]. 37.5 ng of insert and 25 ng of pGL3-Basic vector were therefore reacted in the presence of 3 units of T4 ligase, at ambient temperature.
The PGL3/PAI-1 plasmid is transfected into HepG2 cells. Transfection is carried out in plates having cells at 50% confluence, depositing Lipofectin® (1 mg/ml) and 1.5 μg of PGL3/PAI-1 plasmid in each of the wells. The Lipofectin® is activated for 30 min in an OPTI-MEM medium (GIBCO™) and then brought into contact for 15 min with the plasmids previously diluted with the medium. The cells are incubated for 6 hours at 37° C. in an atmosphere containing 5% CO2 and 95% […]. The transfection medium is withdrawn and replaced overnight by an enriched culture medium in order to stabilise the cells. Expression of the reporter genes is induced over 24 h in an MEM medium without serum. The cells are scratched and lysed in a lysis buffer (Dual-Luciferase® kit, Promega) and then held at −20° C.
The induction phase is 24 h for the HepG2 cells in the presence of TGFβ1 (1 ng/ml). During that induction phase, a PAI-1 expression inhibitor may be added 4 h before TGFβ1 and kept in contact with the cells until the end of the 24 h of the induction phase.
The PAI-1 promoter activity is determined by quantification of the luciferase activity produced (Dual-Luciferase® kit, Promega). To each well there is added a solution of luciferin, the substrate of firefly luciferase. […] The plate is incubated for 10 min in the dark because the luciferase activity is sensitive to light, and then a luminometer reading is started in order to quantify the photons emitted (Wallac, Perkin Elmer), the result obtained being the average cpm (counts per minute) over a period of 5 s.
6,8-Diallyl-5,7-dihydroxy-2-(2-allyl-3-hydroxy-4-methoxyphenyl)-4H-1-benzopyran-4-one, arbitrarily referred to as compound A, and T686 of formula 3(E)-benzylidene-4(E)-(3,4,5-trimethoxybenzylidene)pyrrolidine-2,5-dione (PAI-1 expression inhibitor of reference, from Tanabe) were tested at a concentration of 10 μM on HepG2 cells in the basal state and after induction with TGFβ1. The PAI-1 promoter activity is measured in the control condition and in the presence of inhibitors, in the basal and induced states.

[1] = system: arterial thrombosis induced by FeCl3 on the abdominal aorta; assay: Model of arterial thrombosis induced by FeCl3 on the abdominal aorta in the rat; assay type: in vivo; details: male CD rats, 30 mg/kg/day per os for 5 days, FeCl3 50% on aorta
Method: The studies were carried out on male CD rats weighing between 250 and 400 g (Charles River Laboratories). The experimental protocol carried out on groups of from 6 to 8 rats comprises a group for each compound under test to be compared with a control group in which the rats are treated with a solvent. These rats are used to study the effects of an antithrombotic in a model of arterial thrombosis induced by FeCl3 on the abdominal aorta (Tanaka et al. Z-335, a new thromboxane A2 receptor antagonist, prevents arterial thrombosis induced by ferric chloride in rats, 2000, Eur. J. Pharmacol., 401, 413-418).
The rats are treated with the compound under test, for example 6,8-diallyl-5,7-dihydroxy-2-(2-allyl-3-hydroxy-4-methoxyphenyl)-4H-1-benzopyran-4-one (30 mg/kg/day) by administration per os by gavage for 5 days before arterial thrombosis is induced in those rats. The rats are anaesthetised using pentobarbital 50 mg/kg by intraperitoneal administration and their abdominal aortas are exposed following laparotomy. […]
The activity of 6,8-diallyl-5,7-dihydroxy-2-(2-allyl-3-hydroxy-4-methoxyphenyl)-4H-1-benzopyran-4-one is evaluated as a function of the weight of the clot removed from the aorta, that activity being greater for a lesser weight of clot.

[2] = HepG2, induced by TGFβ1 (1 ng/ml)

Row | SMILES | Activity in cpm (PAI-1 promoter activity) (PAI-1 promoter; HepG2, basal condition) [cpm] | Activity in cpm (PAI-1 promoter activity) (PAI-1 promoter; [2]) [cpm] | inhibition at 10 µM (PAI-1 promoter; HepG2, basal condition) [%] | inhibition at 10 µM (PAI-1 promoter; [2]) [%] | reduction in the weight of the clot with respect to the control [1] [%] | Weight of clot ([1]; n=6, control 10.6 ± 0.7 mg) [mg]
1 | C=CCc1c(-c2cc(=O)c3c(O)c(CC=C)c(O)c(CC=C)c3o2)ccc(OC)c1O [Compound A, 6,8-diallyl-5,7-dihydroxy-2-(2-allyl-3-hydroxy-4-methoxyphenyl)-4H-1-benzopyran-4-one] | 445 ± 121 | 765 ± 138 | 69 | 78 | ~30 | 7.6 ± 0.4
2 | COc1cc(/C=C2/C(=O)NC(=O)/C2=C/c2ccccc2)cc(OC)c1OC [Compound T686, 3(E)-benzylidene-4(E)-(3,4,5-trimethoxybenzylidene)pyrrolidine-2,5-dione, reference compound] | 473 ± 143 | 1641 ± 173 | 67 | 52 | – | –
